# In patent publication US20200316056A1, “Pain Medicine Combination and Uses Thereof” (Mindlab, LLC, priority 2013, published 2020):
# Where “and” joins values, the source holds several entries; their conditions need not be identical. Equal entries are not always repeated.
# System: rats
# Test: Ugo Basile Tail Flick method (Example 2)
# Assay type: in vivo
# Conditions: for Tail Flick Time (seconds) after administration: individual rats 1-7; for Tail Flick Time (seconds) after administration, Mean: mean of 7 rats; for Tail Flick Time (seconds) after administration, Median: median of 7 rats
# Method: The addition of quinidine to a pharmaceutical composition of morphine, and dextromethorphan was tested using Ugo Basile Tail Flick method. This method is often used for in vivo screening of multiple drugs with analgesic activity. The animal was placed and held on the Ugo Basile Tail Flick instrument surface with the tail straight back and across an infrared light source. The heat source and timer are turned on by a foot pedal press, and automatically switch off when the animal flicks its tail off the emitter. Latency time is measured and analyzed as an analgesic effect. Each preparation was tested in 7 rats.
Compound,Tail Flick Time (seconds) after administration (1 h after administration),"Tail Flick Time (seconds) after administration, Mean (1 h after administration) [s]","Tail Flick Time (seconds) after administration, Median (1 h after administration) [s]",Tail Flick Time (seconds) after administration (3 h after administration),"Tail Flick Time (seconds) after administration, Mean (3 h after administration) [s]","Tail Flick Time (seconds) after administration, Median (3 h after administration) [s]",Tail Flick Time (seconds) after administration (5 h after administration),"Tail Flick Time (seconds) after administration, Mean (5 h after administration) [s]","Tail Flick Time (seconds) after administration, Median (5 h after administration) [s]",Tail Flick Time (seconds) after administration (8 h after administration),"Tail Flick Time (seconds) after administration, Mean (8 h after administration) [s]","Tail Flick Time (seconds) after administration, Median (8 h after administration) [s]",Tail Flick Time (seconds) after administration (10 h after administration),"Tail Flick Time (seconds) after administration, Mean (10 h after administration) [s]","Tail Flick Time (seconds) after administration, Median (10 h after administration) [s]",Tail Flick Time (seconds) after administration (14 h after administration),"Tail Flick Time (seconds) after administration, Mean (14 h after administration) [s]","Tail Flick Time (seconds) after administration, Median (14 h after administration) [s]",Tail Flick Time (seconds) after administration (24 h after administration),"Tail Flick Time (seconds) after administration, Mean (24 h after administration) [s]",further results
COc1ccc2c(c1)[C@]13CCCC[C@@H]1[C@H](C2)N(C)CC3 [Dextromethorphan],4.10 s and 3.90 s and 3.30 s and 4.80 s and 5.60 s and 3.70 s and 7.30 s,4.67,4.10,3.90 seconds and 4.60 seconds (2×) and 4.50 seconds and 5.40 seconds and 3.30 seconds and 8.70 seconds,5.00,4.60,4.60 seconds and 6.40 seconds (2×) and 2.90 seconds and 5.10 seconds and 4.10 seconds and 4.50 seconds,4.86,4.60,5.40 s and 5.10 s and 3.70 s and 7.30 s and 4.30 s and 3.80 s and 3.60 s,4.74,4.30,3.10 seconds and 5.50 seconds and 4.30 seconds and 4.80 seconds (2×) and 3.90 seconds and 6.60 seconds,4.71,4.80,3.90 seconds (2×) and 5.20 seconds and 5.60 seconds and 3.80 seconds and 5.10 seconds and 4.10 seconds,4.51,4.10,3.50 seconds (2×) and 4.70 seconds and 4.30 seconds and 5.20 seconds and 3.70 seconds and 3.10 seconds,4.00,"Tail Flick Time (seconds) after administration, Median (24 h after administration): 3.70 s"
CN1CC[C@]23c4c5ccc(O)c4O[C@H]2[C@@H](O)C=C[C@H]3[C@H]1C5 [Morphine],5.80 s and 5.10 s and 6.50 s and 30.10 s and 6.80 s and 10.50 s and 3.70 s,9.79,6.50,6.30 s and 7.60 s and 2.70 s and 9.50 s and 5.30 s and 5.90 s and 4.80 s,6.01,5.90,4.80 seconds and 6.60 seconds and 5.90 seconds and 10.90 seconds and 4.90 seconds and 4.60 seconds (2×),6.04,4.90,6.90 s and 10.50 s and 8.30 s and 8.50 s and 6.70 s and 6.30 s and 3.50 s,7.24,6.90,4.70 s and 4.10 s and 4.80 s and 6.50 s and 6.20 s and 4.20 s and 2.90 s,4.77,4.70,3.50 seconds and 7.50 seconds and 5.10 seconds (2×) and 7.80 seconds and 2.90 seconds and 4.10 seconds,5.14,5.10,4.80 seconds (2×) and 7.60 seconds and 4.30 seconds and 3.40 seconds and 4.90 seconds and 6.10 seconds,5.13,"Tail Flick Time (seconds) after administration, Median (1 h after administration, listed as morphine): 6.5 s; Tail Flick Time (seconds) after administration, Median (24 h after administration): 4.80 s"
